Data reported in patent US10906909B2, “Treatment of cognitive and mood symptoms in neurodegenerative and neuropsychiatric disorders with ALPHA5-containing GABAA receptor agonists” (UWM Research Foundation, Inc., priority 2016, dated 2021).
“Also recorded” adds a separate entry of the source.

Key:
C57B1/6 male mice = assay: Forced swim test (FST); format: in vivo, mouse; conditions: vs vehicle
Experimental: C57B1/6 male mice were ordered from Jackson Laboratories at 8 weeks-old and were group housed (4-5 mice/cage) under normal housing conditions (12 h light ON cycle starting at 7 am/water and food ad libitum) for one week. During this week, animals were handled in order to habituate them to the experimenter and to reduce their anxiety-like response during behavioral testing.
All drugs were diluted in a vehicle solution containing 85% H2O, 14% propylene glycol (Sigma Aldrich) and 1% Tween 80 (Sigma Aldrich). Working solutions were prepared at a concentration of 20 mg/mL and administered i.p. adjusted to the body weight of each animal. Doses used were either 1, 5 or 10 mg/kg. For all FST experiments, animals were injected i.p. with vehicle or αPAM.
Mice were tested in the forced swim test (FST) (measure of despair-like behavior used for the assessment of antidepressant efficacy). Animals were sub-chronically injected three times (24, 20 and 1 hour before testing) as per standard methods in the field for testing potential antidepressant compounds.
One hour after the last injection, mice were placed in an inescapable transparent tank filled with water (25 cm, 25-26° C.), where they are unable to touch the bottom and unable to jump out of the tank. Animal were recorded for a period of 6 minutes and a manual count of the immobile time in the tank was measured for the 2-6 minutes period by an experimenter blinded to the mouse treatment history. Immobility is defined as the minimum amount of movement to stay afloat. Compounds that reduced immobility in the FST are considered to have potential antidepressant actions.

[1] = target: T1, alpha 5 subunit GABAA receptor (Rattus norvegicus, UniProt P18508+P19969); assay: Electrophysiology, whole-cell patch clamp in transfected HEK-293T cells; format: cell-based; conditions: for percent of response to GABA: 1 μM compound, HEK-293T cells transfected with alpha 5 subunit; for relative size of response to GABA among the four compounds: 1 μM, alpha 5, FIG. 26
T1 construct: Full-length cDNAs for GABAA receptor subtypes; expressed in transfected cells; host or cells: HEK-293T (GenHunter, Nashville, Tenn.), transient calcium phosphate transfection
Source text: Transfection of Mammalian Cells and Electrophysiological Recordings. Full-length cDNAs for GABAA receptor subtypes (generously provided by Dr. Robert Macdonald, Vanderbilt University and Dr. David Weiss, University of Texas Health Science Center, San Antonio, Tex.) in mammalian expression vectors were transfected into the human embryonic kidney cell line HEK-293T (GenHunter, Nashville, Tenn.) (Chestnut et al, 1996, J. Immunol. Methods 193, 17-27). All subtypes were rat clones except for α2, which was a human clone. Cells were maintained in Dulbecco's modified Eagle's medium (DMEM) plus 10% fetal bovine serum, 100 IU/mL penicillin, and 100 μg/mL streptomycin.
HEK-293T cells were transiently transfected using calcium phosphate precipitation. Plasmids encoding GABAA receptor subtype cDNAs were added to the cells in 1:1:1 ratios (α:β:γ) of 2 μg each.31 For identification of positively transfected cells, 1 μg of the plasmid pHook-1 (Invitrogen Life Technologies, Grand Island N.Y.) containing cDNA encoding the surface antibody sFv was also transfected into the cells.11 Following a 4-6 h incubation at 3% CO2, the cells were treated with a 15% glycerol solution in BBS buffer (50 mM BES(N,N-bis[2-hydroxyethyl]-2-aminoethanesulfonic acid), 280 mM NaCl, 1.5 mM Na2HPO4) for 30 s. The selection procedure for pHook expression was performed 18-52 h later. The cells were passaged and mixed for 30-60 min with 3-5 μL of magnetic beads coated with antigen for the pHook antibody (approximately 6×105 beads).11 Bead-coated cells were isolated using a magnetic stand. The selected cells were resuspended into supplemented DMEM, plated onto glass coverslips treated with poly L-lysine and collagen, and used for recordings the next day.
Cells were patch-clamped at −50 mV in the whole-cell recording configuration. The bath solution consisted of (in mM): 142 NaCl, 8.1 KCl, 6 MgCl2, 1 CaCl2), and 10 HEPES (4-(2-hydroxyethyl)-1-piperazineethanesulfonic acid) with pH=7.4 and osmolarity adjusted to 295-305 mOsm. Recording electrodes were filled with a solution of (in mM) 153 KCl, 1 MgCl2, 5 K-EGTA (ethylene glycol-bis(β-aminoethyl ether N,N,N′N′-tetraacetate), and 10 HEPES with pH=7.4 and osmolarity adjusted to 295-305 mOsm. GABA was diluted into the bath solution from freshly made or frozen stocks in water. Compounds were dissolved in DMSO and diluted into bath solution with the highest DMSO level applied to cells of 0.01%. Patch pipettes were pulled from borosilicate glass (World Precision Instruments, Sarasota, Fla.) on a two-stage puller (Narishige, Japan) to a resistance of 5-10 MO. Solutions containing GABA or GABA+ compounds were applied to cells for 5 s. using a 3-barrelled solution delivery device controlled by a computer-driven stepper motor (SF-77B, Harvard Apparatus, Holliston, Mass., open tip exchange time of <50 ms). There was a continuous flow of external solution through the chamber. Currents were recorded with an Axon 200B (Foster City, Calif.) patch clamp amplifier.
Whole-cell currents were analyzed using the programs Clampfit (pClamp9 suite, Axon Instruments, Foster City, Calif.) and Prism (Graphpad, San Diego, Calif.). Concentration-response data was fit with a four-parameter logistic equation (current=[minimum current+(maximum current−minimum current)]/1+(10(logEC50−log[modulator])n) where n represents the Hill number. All fits were made to normalized data with current expressed as a percentage of the response to GABA alone for each cell.

HEK293 = assay: Cytotoxicity assay (CellTiter-Glo), HEK293; format: cell-based, human; conditions: 48 hours incubation
Experimental: (§1) Human liver hepatocellular carcinoma (HEPG2) and human embryonic kidney 293 (HEK293) cell lines were purchased (ATCC) and cultured in 75 cm2 flasks (CellStar). Cells were grown in DMEM/High Glucose (Hyclone, #SH3024301) media to which non-essential amino acids (Hyclone, #SH30238.01), 10 mM HEPES (Hyclone, #SH302237.01), 5×106 units of penicillin and streptomycin (Hyclone, #SV30010), and 10% of heat inactivated fetal bovine serum (Gibco, #10082147) were added. Cells were harvested using 0.05% Trypsin (Hyclone, #SH3023601), washed with PBS, and dispensed into sterile white, optical bottom 384-well plates (NUNC, #142762). After three hours, small molecule solutions were transferred with a Tecan Freedom EVO liquid handling system equipped with a 100 nL pin tool (V&P Scientific). The controls (E)-10-(bromotriphenylphosphoranyl)decyl 4-(4-(tert-butyl)phenyl)-4-oxobut-2-enoate (400 μM in DMSO, positive control) and DMSO (negative control). The cells were incubated for 48 hours followed by the addition of CellTiter-Glo™, a luminescence-based cell viability assay (Promega, Madison, Wis.). All luminescence readings were performed on a Tecan Infinite M1000 plate reader. The assay was carried out in quadruplet with three independent runs. The data was normalized to the controls and analyzed by nonlinear regression (GraphPad Prism).

HEPG2 = assay: Cytotoxicity assay (CellTiter-Glo), HEPG2; format: cell-based, human; conditions: 48 hours incubation
Experimental: as §1

[2] = Pharmacokinetics in mice (plasma, liver, brain); conditions: for concentration at 20 min: C57/BL6, mouse, ip, 10 mg/kg
[3] = 10 mg/kg i.p. 24, 20, 1 hour before testing
[4] = 5 mg/kg i.p. 24, 20, 1 hour before testing

T1 sequence (P19969 32-464 limits assumed): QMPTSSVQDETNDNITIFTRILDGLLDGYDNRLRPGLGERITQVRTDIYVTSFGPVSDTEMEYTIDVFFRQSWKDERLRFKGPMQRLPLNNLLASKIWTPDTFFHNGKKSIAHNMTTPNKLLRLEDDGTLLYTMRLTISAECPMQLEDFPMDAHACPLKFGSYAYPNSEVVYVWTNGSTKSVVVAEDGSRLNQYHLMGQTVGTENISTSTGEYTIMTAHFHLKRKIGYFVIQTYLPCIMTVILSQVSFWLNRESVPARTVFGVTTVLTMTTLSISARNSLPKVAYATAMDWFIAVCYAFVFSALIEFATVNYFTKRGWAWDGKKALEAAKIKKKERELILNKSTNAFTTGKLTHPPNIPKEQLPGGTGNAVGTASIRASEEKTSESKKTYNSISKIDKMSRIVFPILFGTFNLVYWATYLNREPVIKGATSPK
T1 sequence (P63079 26-473 partner): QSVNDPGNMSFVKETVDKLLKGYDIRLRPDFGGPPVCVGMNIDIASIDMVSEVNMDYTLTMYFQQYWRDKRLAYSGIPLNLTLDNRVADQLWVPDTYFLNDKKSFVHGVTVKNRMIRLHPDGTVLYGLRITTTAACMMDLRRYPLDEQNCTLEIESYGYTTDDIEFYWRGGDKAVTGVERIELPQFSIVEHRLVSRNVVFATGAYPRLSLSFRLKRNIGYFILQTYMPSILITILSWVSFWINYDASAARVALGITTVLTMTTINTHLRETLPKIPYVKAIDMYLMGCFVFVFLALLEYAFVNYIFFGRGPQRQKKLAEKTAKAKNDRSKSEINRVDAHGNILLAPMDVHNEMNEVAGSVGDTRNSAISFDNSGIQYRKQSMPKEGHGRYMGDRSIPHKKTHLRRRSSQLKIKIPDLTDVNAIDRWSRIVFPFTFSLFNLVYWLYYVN
T1 sequence (P18508 39-466): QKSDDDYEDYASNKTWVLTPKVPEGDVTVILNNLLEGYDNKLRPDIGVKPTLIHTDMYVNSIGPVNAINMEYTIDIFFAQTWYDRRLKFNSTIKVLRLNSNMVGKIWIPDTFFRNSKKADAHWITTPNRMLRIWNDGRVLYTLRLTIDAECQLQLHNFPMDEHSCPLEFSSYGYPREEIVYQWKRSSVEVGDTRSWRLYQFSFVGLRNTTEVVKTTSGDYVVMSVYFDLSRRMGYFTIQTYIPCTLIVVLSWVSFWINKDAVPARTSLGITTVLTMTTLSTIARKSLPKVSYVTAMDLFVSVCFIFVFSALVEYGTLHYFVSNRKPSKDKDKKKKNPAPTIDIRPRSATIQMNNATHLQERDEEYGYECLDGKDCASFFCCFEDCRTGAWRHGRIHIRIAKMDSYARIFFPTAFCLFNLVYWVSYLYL

SMILES: C#Cc1ccc2c(c1)C(c1ccccc1F)=N[C@H](C)c1c(C(=O)N(C)C)ncn1-2 [GL-II-73, (R)-8-ethynyl-6-(2-fluorophenyl)-N,N,4-trimethyl-4H-benzo[f]imidazo[1,5-a][1,4]diazepine-3-carboxam]
- time spent immobile in the FST (C57B1/6 male mice; [3]): significantly decreased the immobility; also recorded: significant antidepressant-like efficacy
- percent of response to GABA [1]: increased in the percent of response to GABA
- relative size of response to GABA among the four compounds [1]: greatest response
- HEK293 LD50 (HEK293): >200 µM
- HEPG2 LD50 (HEPG2): >400 µM
- molar concentration range reached in mouse brain tissue ([2]; 10 mg/kg dose i.p.): micromolar range

SMILES: C#Cc1ccc2c(c1)C(c1ccccc1F)=N[C@@H](C)c1c(C(=O)N(C)C)ncn1-2 [GL-I-54, (S)-8-ethynyl-6-(2-fluorophenyl)-N,N,4-trimethyl-4H-benzo[f]imidazo[1,5-a][1,4]diazepine-3-carboxamide]
- time spent immobile in the FST (C57B1/6 male mice; [4]): significant decrease in immobility time; also recorded: significant antidepressant-like action
- HEK293 LD50 (HEK293): >400 µM
- HEPG2 LD50 (HEPG2): >400 µM
- molar concentration range reached in mouse brain tissue ([2]; i.p. dosing at 3 mg/kg): high submicromolar to low micromolar values

SMILES: C#Cc1ccc2c(c1)C(c1ccccc1F)=N[C@H](C)c1c(C(=O)NC3CC3)ncn1-2 [GL-II-75, (R)—N-cyclopropyl-8-ethynyl-6-(2-fluorophenyl)-4-methyl-4H-benzo[f]imidazo[1,5-a][1,4]diazepine-3-carboxamide]
- time spent immobile in the FST (C57B1/6 male mice; [4]): significantly decreased the immobility; also recorded: significant antidepressant-like efficacy
- time spent immobile in the FST (C57B1/6 male mice; [3]): significantly decreased the immobility; also recorded: significant antidepressant-like efficacy
- percent of response to GABA [1]: increased in the percent of response to GABA
- relative size of response to GABA among the four compounds [1]: greatest response
- molar concentration range reached in mouse brain tissue ([2]; 10 mg/kg dose i.p.): micromolar range

SMILES: C#Cc1ccc2c(c1)C(c1ccccc1F)=N[C@H](C)c1c(C(=O)NCC)ncn1-2 [GL-II-74, (R)—N-ethyl-8-ethynyl-6-(2-fluorophenyl)-4-methyl-4H-benzo[f]imidazo[1,5-a][1,4]diazepine-3-carboxamide]
- time spent immobile in the FST (C57B1/6 male mice; [4]): significantly decreased the immobility; also recorded: significant antidepressant-like efficacy
- time spent immobile in the FST (C57B1/6 male mice; [3]): significantly decreased the immobility; also recorded: significant antidepressant-like efficacy
- percent of response to GABA [1]: increased in the percent of response to GABA
- relative size of response to GABA among the four compounds [1]: greatest response
- molar concentration range reached in mouse brain tissue ([2]; 10 mg/kg dose i.p.): micromolar range

SMILES: C#Cc1ccc2c(c1)C(c1ccccc1F)=N[C@H](C)c1c(C(=O)NC)ncn1-2 [MP-III-022]
- time spent immobile in the FST (C57B1/6 male mice; [3]): significant decrease in immobility time; also recorded: significant antidepressant-like action
- HEK293 LD50 (HEK293): >100 µM
- HEPG2 LD50 (HEPG2): >200 µM

SMILES: C#Cc1ccc2c(c1)C(c1ccccc1F)=N[C@H](C)c1c(C(=O)N3CCCC3)ncn1-2 [GL-II-76, (R)-(8-ethynyl-6-(2-fluorophenyl)-4-methyl-4H-benzo[f]imidazo[1,5-a][1,4]diazepin-3-yl)(pyrrolidin-1-yl)methanone]
- percent of response to GABA [1]: increased in the percent of response to GABA
- HEK293 LD50 (HEK293): >100 µM
- HEPG2 LD50 (HEPG2): >400 µM
- concentration at 20 min ([2]; brain): 204 ± 101 ng/g
- concentration at 20 min ([2]; liver): 4360 ng/g
- concentration at 20 min ([2]; plasma): 605 ± 198 ng/mL
- brain penetrance ([2]; mice and rats): brain-penetrant at the exception of GI-II-76
- brain concentrations, suitability for CNS-active drug ([2]; pilot cassette study, mice and rats): suboptimal
